2 compounds from US6403601B1, “N-(2-phenyl-4-piperidinybutyl)-5,6,7,8-tetrahydro-1-naphthalenecarboxamides and their use as neurokinin 1 (NK1) and/or neurokinin 2 (NK2) receptor antagonists” (Astrazeneca AB, priority 1998, dated 2002) can be followed below.

The target in one assay is T1, NK2 (Oryctolagus cuniculus, UniProt P79218).
T1 construct: The pulmonary arteries are isolated from the rest of the tissues, then rubbed over an intimal surface to remove the endothelium; from tissue; host or cells: rabbit pulmonary artery rings, endothelium removed
T1 sequence (P79218 1-384): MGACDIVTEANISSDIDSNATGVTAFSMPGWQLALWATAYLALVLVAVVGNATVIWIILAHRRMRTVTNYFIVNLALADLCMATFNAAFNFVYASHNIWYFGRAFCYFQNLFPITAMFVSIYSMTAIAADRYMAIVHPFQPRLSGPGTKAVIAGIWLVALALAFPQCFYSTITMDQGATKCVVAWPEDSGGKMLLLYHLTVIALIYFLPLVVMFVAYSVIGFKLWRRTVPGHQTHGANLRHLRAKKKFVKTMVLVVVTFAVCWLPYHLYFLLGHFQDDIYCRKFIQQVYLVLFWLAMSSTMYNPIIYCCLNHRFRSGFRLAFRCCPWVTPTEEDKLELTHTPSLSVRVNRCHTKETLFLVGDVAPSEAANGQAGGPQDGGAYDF
Put plainly: Rabbit Pulmonary Artery: NK2 In Vitro Functional Assay (Test D). The class given is cell-based. The following applies: agonist BANK; -log molar KB; read-out: Rabbit Pulmonary Artery NK2 pKb (Test D) (converted). Here is the method: NK2 In Vitro Functional Assay (Test D)
The ability of a Compound of the invention to antagonize the action of the agonist [β-ala^8] […] Male New Zealand white rabbits are euthanized via i.v. injection into an ear vein with 60 mg/kg Nembutal (50 mg/mL). Preceding the Nembutal into the vein is Heparin (1000 units/mL) at 0.0025 mL/kg for anticoagulant purposes. The chest cavity is opened from the top of the rib cage to the stemum and a small incision is made into the heart so that the left and right pulmonary arteries can be cannulated with polyethylene tubing (PE260 and PE190 respectively). […] Responses are measured on a Grass polygraph via Grass FT-03 transducers and the electrical signals (data) acquired using a Mi^2 software/hardware system for subsequent conversion to measures of contraction. […]
For non-competitive antagonists, the percent inhibition of contraction is determined at a given concentration of the antagonist Percent inhibition is determined when a tested Compound produces a statistically significant (p<0.05) reduction of the total contraction which is calculated using the total contraction as a percent of the control value. Potencies of competitive Compounds are determined by calculating the apparent dissociation constants (KB) for each concentration tested using the standard equation: […]

The next assay has as its target T2, NK1 (Oryctolagus cuniculus, UniProt G1SEI7).
T2 construct: The pulmonary arteries are isolated from the rest of the tissues and cut in half to serve as pairs; from tissue; host or cells: rabbit pulmonary artery rings, endothelium intact
The assay can be described thus: Rabbit Pulmonary Artery: NK1 In Vitro Functional Assay (Test C). Format: cell-based. The note with it: agonist ASMSP. Here is the method: Rabbit Pulmonary Artery: NK1 In Vitro Functional Assay (Test C)
The ability of a Compound of the invention to antagonize the action of the agonist Ac-[Arg^6, Sar^9, Met(O2)^11]
Male New Zealand white rabbits are euthanized via i.v. injection into an ear vein with 60 mg/kg Nembutal (50 mg/mL). Preceding the Nembutal into the vein is Heparin (1000 units/mL) at 0.0025 ml/kg for anticoagulant purposes. The chest cavity is opened from the top of the rib cage to the sternum and the heart, lungs and part of the trachea are removed. The pulmonary arteries are isolated from the rest of the tissues and cut in half to serve as pairs.
The segments are suspended between stainless steel stirrups, so as not to remove any of the endothelium, and placed in water-jacketed (37° C.) tissue baths containing physiological salt solution of the following composition (mM): NaCl, 118.0; KCl, 4.7; CaCl2, 1.8; MgCl2, 0.54; NaH2PO4, 1.0; NaHCO3, 25.0; glucose, 11.0; indomethacin, 0.005(to inhibit cyclooxygenase); and dl-Propranolol, 0.00l(to block β receptors); gassed continuously with 95% O2-5% CO2. Responses are measured on a Grass polygraph via Grass FT-03 transducers and the electrical signals (data) acquired using a Mi^2 software/hardware system for subsequent conversion to measures of relaxation. […]

The next assay addresses T3, NK1 receptors (Cavia porcellus, UniProt P30547).
T3 construct: from tissue; host or cells: whole anesthetized guinea pig (airways)
Put plainly: NK1 In Vivo Functional Assay (Test E), agonist-induced bronchoconstriction in anesthetized guinea pigs. The arrangement: species or system guinea pig. The note with it: 120 minutes prior to agonist ASMSP, Dose Ratio of ED50 in presence/absence of antagonist. The procedure:
NK1 and NK2 In Vivo Functional Assay (Test E)
Exp. Ther., 1993, Vol 267(3), pp 1168-1175. The assay is carried out as follows.
Compounds are tested in anesthetized guinea pigs pretreated with i.v. indomethacin (10 mg/kg, 20 min.), propranolol (0.5 mg/kg, 15 min.), and thiorphan (10 mg/kg, 10 min).
Antagonists or vehicle are administered i.v. and orally, 30 and 120 minutes prior to increasing concentrations of agonist, respectively. The agonists used in these studies are ASMSP (Ac-[Arg^6,Sar^9,Met(O2)^11]-SP(6-11)) and BANK (β-ala-8 NKA4-10).
Administered i.v., ASMSP is selective for NK1 receptors, and BANK is selective for NK2 receptors. Maximum response is defined as zero conductance (GL, 1/Rp). ED50 values are calculated (the dose of agonist resulting in a reduction of GL to 50% of baseline), and converted to the negative logarithm (−logED50). The ED50 values, obtained in the presence (P) and absence (A) of antagonist, are used to calculate a Dose Ratio (P/A), an expression of potency. Data are expressed as mean±SEM and statistical differences were determined using ANOVA/Tukey-Kramer and Student's t-test , with p<0.05 considered statistically significant.

Each structure is given as a SMILES string.

T3 sequence (P30547 whole entry): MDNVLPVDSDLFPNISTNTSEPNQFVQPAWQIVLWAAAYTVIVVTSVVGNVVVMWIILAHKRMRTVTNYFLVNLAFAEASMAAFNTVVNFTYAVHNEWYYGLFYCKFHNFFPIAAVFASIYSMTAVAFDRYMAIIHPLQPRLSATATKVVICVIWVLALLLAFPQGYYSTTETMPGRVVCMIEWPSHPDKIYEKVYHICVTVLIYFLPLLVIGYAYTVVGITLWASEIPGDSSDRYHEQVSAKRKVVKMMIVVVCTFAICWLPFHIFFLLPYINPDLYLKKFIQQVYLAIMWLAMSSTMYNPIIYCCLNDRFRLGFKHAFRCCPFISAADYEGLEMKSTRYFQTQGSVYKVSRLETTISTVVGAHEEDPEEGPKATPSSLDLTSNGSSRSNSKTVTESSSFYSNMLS
T2 sequence (G1SEI7 1-407): as the sequence (P30547 whole entry) above, with G176S, S186E, A329G, F342L, D368E, P369A, T376N, V395M, S399F counted along it

As a reminder, the inhibition is how much of the control response was suppressed. A higher inhibition goes with a response far below the control. Consider `COc1c(C#N)cc2c(c1C(=O)N(C)C[C@@H](CCN1CCC(c3ccccc3[S@+](C)[O-])CC1)c1ccc(Cl)c(Cl)c1)CCCC2` [Example 5, N-[(S)-2-(3,4-Dichlorophenyl)-4-[4-[(S)-2-methylsulfinylphenyl]-1-piperidinyl]butyl]-N-methyl-3-cyano-2-methoxy-5,6,7,8-tetrahydro-1-naphthamide], for which the Kb at NK2 is 79.4 nM. Moreover, the inhibition at 0.01 µM at NK1 (inhibition of relaxation at 10^−8 M) amounted to 74%. On NK1 receptors, the “Oral Activity (Test E) NK1 P/A” value is 454.

As to `CN(C[C@@H](CCN1CCC(c2ccccc2[S@+](C)[O-])CC1)c1ccc(Cl)c(Cl)c1)C(=O)c1cc(C#N)cc2c1CCCC2` [Example 6, N-[2-(S)-(3,4-Dichlorophenyl)4-[-4-[(S)-2-(methylsulfinyl)phenyl]-1-piperidinyl]butyl]-N-methyl-3-cyano-5,6,7.8-tetrahydro-1-naphthamide], the Kb on NK2 was 25.1 nM; on NK1 (-log molar KB, read-out: Rabbit Pulmonary Artery NK1 pKb (Test C) (converted)) it was 5.01 nM. Further, the “Oral Activity (Test E) NK1 P/A” value at NK1 receptors was determined as 147.
